The target in experiment [1] is T1, human Kv1.3 (CHO) (Homo sapiens, UniProt P22001).
T1 construct: expressed in transfected cells; host or cells: CHO
Description: cell-based.

The target of experiment [2] is T2, human Kv1.1 (HEK293) (Homo sapiens, UniProt Q09470).
T2 construct: expressed in transfected cells; host or cells: HEK293
Description: cell-based.

pIC50: −log10 of the molar value. Bridge positions count the residues as written; N and C are the ends. Peptide text beside a SMILES is read from it.

T2 sequence (Q09470 whole entry): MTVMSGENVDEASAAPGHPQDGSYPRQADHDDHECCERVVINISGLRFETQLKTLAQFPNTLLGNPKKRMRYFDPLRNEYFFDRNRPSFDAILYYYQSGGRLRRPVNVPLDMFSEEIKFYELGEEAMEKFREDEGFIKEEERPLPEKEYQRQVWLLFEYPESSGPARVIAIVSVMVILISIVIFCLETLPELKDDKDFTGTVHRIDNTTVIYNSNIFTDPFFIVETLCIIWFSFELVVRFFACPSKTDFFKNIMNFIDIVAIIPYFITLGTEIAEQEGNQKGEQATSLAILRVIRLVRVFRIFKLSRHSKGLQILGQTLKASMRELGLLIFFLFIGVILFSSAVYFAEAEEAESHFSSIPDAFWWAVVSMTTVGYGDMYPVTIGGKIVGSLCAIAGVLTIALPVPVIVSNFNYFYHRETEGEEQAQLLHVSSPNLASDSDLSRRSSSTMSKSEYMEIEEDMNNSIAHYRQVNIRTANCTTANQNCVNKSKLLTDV
T1 sequence (P22001 whole entry): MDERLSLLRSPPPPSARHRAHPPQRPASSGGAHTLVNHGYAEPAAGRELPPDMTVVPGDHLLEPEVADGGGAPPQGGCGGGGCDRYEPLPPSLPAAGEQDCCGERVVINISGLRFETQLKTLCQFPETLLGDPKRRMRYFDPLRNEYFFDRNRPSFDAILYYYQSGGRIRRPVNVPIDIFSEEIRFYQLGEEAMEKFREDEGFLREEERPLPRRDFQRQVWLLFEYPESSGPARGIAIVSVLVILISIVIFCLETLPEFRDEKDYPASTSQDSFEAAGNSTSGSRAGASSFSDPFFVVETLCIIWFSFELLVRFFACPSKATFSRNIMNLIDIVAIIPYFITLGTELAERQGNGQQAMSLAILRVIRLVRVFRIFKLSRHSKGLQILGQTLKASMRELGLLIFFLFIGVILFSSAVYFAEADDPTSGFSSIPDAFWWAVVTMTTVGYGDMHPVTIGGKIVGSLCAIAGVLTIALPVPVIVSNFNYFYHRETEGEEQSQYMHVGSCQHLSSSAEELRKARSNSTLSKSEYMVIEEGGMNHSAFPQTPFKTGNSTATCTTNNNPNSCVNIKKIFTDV

What is called pIC50 is −log10 of the IC50, conventionally taken in molar units. Turning to `CC[C@H](C)[C@@H]1NC(=O)[C@H](CCCCN)NC(=O)[C@@H](NC(=O)[C@H](CCCCN)NC(=O)[C@@H](NC(=O)[C@H](CC(N)=O)NC(=O)[C@@H](NC(=O)[C@@H](NC(=O)[C@H](CCC(=O)O)NC(=O)CN)[C@@H](C)CC)[C@@H](C)CC)C(C)C)CSSC[C@@H]2NC(=O)[C@H](CCCCN)NC(=O)CNC(=O)[C@H](Cc3ccccc3)NC(=O)[C@H](CCCNC(=N)N)NC(=O)[C@H](CCSC)NC(=O)CNC(=O)[C@H](C)NC(=O)[C@H](CCCCN)NC(=O)[C@H](CCCCN)NC(=O)[C@@H]3CSSC[C@@H](C(=O)N[C@H](C(=O)N4CCC[C@H]4C(=O)N[C@@H](CCCCN)C(=O)O)[C@@H](C)O)NC(=O)[C@H](Cc4c[nH]cn4)NC(=O)[C@H](CSSC[C@H](NC(=O)[C@H](CCC(N)=O)NC(=O)[C@H](CCCNC(=N)N)NC(=O)[C@H](CO)NC1=O)C(=O)N[C@@H](CC(C)C)C(=O)N[C@@H](CCC(=O)O)C(=O)N1CCC[C@H]1C(=O)N3)NC(=O)[C@H](CCCCN)NC(=O)CNC(=O)[C@H](CC(N)=O)NC(=O)[C@H](CCSC)NC2=O` [V2E] (H-GEIINVKCKISRQCLEPCKKAGMRFGKCMNGKCHCTPK-OH; disulfide 8-28, 14-33, 18-35), the pIC50 in experiment [1] was 10.44; in experiment [2], 10.46.
On the same counts, the results for `CC[C@H](C)[C@@H]1NC(=O)[C@H](CCCCN)NC(=O)[C@@H](NC(=O)[C@H](CCCCN)NC(=O)[C@@H](NC(=O)[C@H](CC(N)=O)NC(=O)[C@@H](NC(=O)[C@@H](NC(=O)[C@H](CCCNC(=N)N)NC(=O)CN)[C@@H](C)CC)[C@@H](C)CC)C(C)C)CSSC[C@@H]2NC(=O)[C@H](CCCCN)NC(=O)CNC(=O)[C@H](Cc3ccccc3)NC(=O)[C@H](CCCNC(=N)N)NC(=O)[C@H](CCSC)NC(=O)CNC(=O)[C@H](C)NC(=O)[C@H](CCCCN)NC(=O)[C@H](CCCCN)NC(=O)[C@@H]3CSSC[C@@H](C(=O)N[C@H](C(=O)N4CCC[C@H]4C(=O)N[C@@H](CCCCN)C(=O)O)[C@@H](C)O)NC(=O)[C@H](Cc4c[nH]cn4)NC(=O)[C@H](CSSC[C@H](NC(=O)[C@H](CCC(N)=O)NC(=O)[C@H](CCCNC(=N)N)NC(=O)[C@H](CO)NC1=O)C(=O)N[C@@H](CC(C)C)C(=O)N[C@@H](CCC(=O)O)C(=O)N1CCC[C@H]1C(=O)N3)NC(=O)[C@H](CCCCN)NC(=O)CNC(=O)[C@H](CC(N)=O)NC(=O)[C@H](CCSC)NC2=O` [V2R] (H-GRIINVKCKISRQCLEPCKKAGMRFGKCMNGKCHCTPK-OH; disulfide 8-28, 14-33, 18-35) are 9.88 and 10.59.
Consider `CC[C@H](C)[C@@H]1NC(=O)[C@H](CCCCN)NC(=O)[C@@H](NC(=O)[C@H](CCCCN)NC(=O)[C@H](C)NC(=O)[C@H](CC(N)=O)NC(=O)[C@@H](NC(=O)[C@@H](NC(=O)[C@@H](NC(=O)CN)C(C)C)[C@@H](C)CC)[C@@H](C)CC)CSSC[C@@H]2NC(=O)[C@H](CCCCN)NC(=O)CNC(=O)[C@H](Cc3ccccc3)NC(=O)[C@H](CCCNC(=N)N)NC(=O)[C@H](CCSC)NC(=O)CNC(=O)[C@H](C)NC(=O)[C@H](CCCCN)NC(=O)[C@H](CCCCN)NC(=O)[C@@H]3CSSC[C@@H](C(=O)N[C@H](C(=O)N4CCC[C@H]4C(=O)N[C@@H](CCCCN)C(=O)O)[C@@H](C)O)NC(=O)[C@H](Cc4c[nH]cn4)NC(=O)[C@H](CSSC[C@H](NC(=O)[C@H](CCC(N)=O)NC(=O)[C@H](CCCNC(=N)N)NC(=O)[C@H](CO)NC1=O)C(=O)N[C@@H](CC(C)C)C(=O)N[C@@H](CCC(=O)O)C(=O)N1CCC[C@H]1C(=O)N3)NC(=O)[C@H](CCCCN)NC(=O)CNC(=O)[C@H](CC(N)=O)NC(=O)[C@H](CCSC)NC2=O` [V6A] (H-GVIINAKCKISRQCLEPCKKAGMRFGKCMNGKCHCTPK-OH; disulfide 8-28, 14-33, 18-35), for which the pIC50 was 9.76 in experiment [1] and 10.89 in experiment [2].

(Values after patent US20090299044A1 (priority 2006, published 2009).)
